Data: patent publication US6821769B2, “IniB, iniA and iniC genes of mycobacteria and methods of use” (priority 1998, dated 2004)

Tested on: iniA
Type: cell-based, BCG

SMILES: NNC(=O)c1ccncc1 [isoniazid]
- Induction of iniA in isoniazid resistant BCG strain: Lack of iniA induction
- Induction of iniA in isoniazid susceptible BCG strain: seen only in the susceptible BCG strain
